# What was measured:
# TZM-bl cells = assay: Cell viability assay (CellTiter 96 AQueous) in TZM-bl cells; assay type: cell-based, human
# Procedure: (§1) Viability in presence of compounds was measured at day 4 or 7, TZM-bl cells or PBMCs, using CellTiter 96 AQueous one solution cell proliferation assay (Promega) following manufacturer instructions. Toxicity of compounds was defined as a concentration that produced more than 10% decline in viability of TZM-bl cells or PBMCs were viable at days 4 or 7 of exposure, respectively, compared with DMSO-treated controls.
# PBMCs = assay: Cell viability assay (CellTiter 96 AQueous) in PBMCs; assay type: cell-based, human; details: 200 μM, day 7
# Procedure: as §1
# HIV-1AD02 [1] = assay: Anti-viral activity in TZM-bl cells, multi PI-resistant HIV-1AD02 (luciferase); assay type: cell-based
# Procedure: (§2) Anti-viral activity was evaluated ex vivo by adding the highest non-toxic concentration of compound or 25uM RTV (Sigma) solubilized in DMSO on the day of infection by PI-sensitive (HIV-1AD) or multi (RTV and IDV) PI-resistant (HIV-1AD02) HIV-1 variants at 25 or 45 TCID50 per ml for PBMCs or TZM-bl cells, respectively. Replication was determined on post-infection day 7 in PBMC by measuring supernatant p24 antigen levels (Perkin-Elmer), or day 4 in TZM-bl cells by measuring luciferase activity using the luciferase assay system (Promega, Madison, WI) and the microplate luminometer Monolight 3096 (BD Biosciences, San Jose, CA). Inhibitory concentration (IC)50 was calculated based on anti-viral activity in TZM-bl cells with a nonlinear regression analysis (GraphPad Prism 6 Software). Reduction of viral replication by more than 50% was considered successful anti-viral activity. Combinatorial effect of drug with RTV was tested at IC50, and higher or lower concentrations than IC50.
# HIV-1 PR subtype C = molecular target: T1, HIV-1 PR subtype C (Human immunodeficiency virus type 1 group M subtype C, UniProt Q75002); assay: In vitro PR inhibition assay, subtype C; assay type: biochemical; design: key: [+] or [−] indicating PR inhibition or no inhibition, respectively; [+] or [−] indicating PR inhibition or no inhibition, respectively; details: compound at 80 μM, 37 °C
# T1 construct: HIV type 1 (HIV-1) PR is a homodimeric enzyme of 99 amino acids; made in house
# Procedure: (§3) The compounds were obtained from the NCI/DTP and solubilized in DMSO (Sigma) for use in HIV-1 PR inhibition assays. Cloning, expression, and purification procedures of HIV-1 PRs obtained from […] samples have been previously described elsewhere. For detailed information of mutations harbored in the multi PI-resistant HIV-1PR as compared to the PI-sensitive PR, full amino acid sequences is given in supplementary materials (Figure S1). HIV-1 PRs subtype variants were assayed kinetically at 80 μM for inhibitory activity at 37 °C using selected compounds as previously described.
# (§4) We explored the hypothesis that compounds selected in silico for binding to the hinge region of PR are effective as inhibitors of HIV-1 replication, including multi-PI resistant viruses, in human cells. Our of 139,739 compounds, the top 40 highest-scoring compounds targeting the structural pockets in the hinge of the PR (Figure S1) were obtained from the NCI/DTP for use in HIV PR inhibition assays. Compounds were initially tested in vitro at 80 μM to screen for inhibitory activity against PR subtypes A, B or C. Compounds inhibiting at least one subtype of the PR were considered as candidate compounds for further experiments.
# HIV-1 PR subtype B = molecular target: T2, HIV-1 PR subtype B (Human immunodeficiency virus type 1 group M subtype B, UniProt P04585); assay: In vitro PR inhibition assay, subtype B; assay type: biochemical; design: key: [+] or [−] indicating PR inhibition or no inhibition, respectively; [+] or [−] indicating PR inhibition or no inhibition, respectively; details: compound at 80 μM, 37 °C
# T2 construct: HIV type 1 (HIV-1) PR is a homodimeric enzyme of 99 amino acids; made in house
# Procedure: as §3, §4
# HIV-1AD02 [2] = assay: Anti-viral activity alone or combined with 25 µM RTV, relative to 25 µM RTV, HIV-1AD02; assay type: cell-based
# Procedure: as §2
# (§5) Combinatorial effect of drug was tested combining 25 μM RTV and higher or lower concentrations than IC50 of lead compounds. Combinations of compounds 18, 22, 27, 32 or 35 with 25 μM RTV were non-toxic in TZM-bl cells. Combination with RTV increased antiviral activity of all compounds against both PI-sensitive and PI-resistant HIV-1 variants (Figure 2).
# (§6) Table S2. Fold change of compounds (18, 22, 27, 32 or 35) alone or in combination with 25 µM RTV compared to 25 µM
# (§7) RTV. P values are reported in parenthesis with Bonferroni correction with significance p<0.0055; fold change >1 indicates […]
# (§8) are highlighted in yellow; (-) not performed. (1) Anti-viral activity against HIV-1; (2) Compounds identification number.
# (§9) Fold change of compounds compared to 25 µM RTV as reference […]
# HIV-1AD [3] = assay: Anti-viral activity alone or combined with 25 µM RTV, relative to 25 µM RTV, HIV-1AD; assay type: cell-based
# Procedure: as §2, §5, §6, §7, §8, §9
# HIV-1 PR subtype A = molecular target: T3, HIV-1 PR subtype A (Human immunodeficiency virus type 1 group M subtype A, UniProt P24740); assay: In vitro PR inhibition assay, subtype A; assay type: biochemical; design: key: [+] or [−] indicating PR inhibition or no inhibition, respectively; [+] or [−] indicating PR inhibition or no inhibition, respectively; details: compound at 80 μM, 37 °C
# T3 construct: HIV type 1 (HIV-1) PR is a homodimeric enzyme of 99 amino acids; made in house
# Procedure: as §3, §4
# HIV-1AD [4] = assay: Anti-viral activity in TZM-bl cells, PI-sensitive HIV-1AD (luciferase); assay type: cell-based
# Procedure: as §2
# [5] = highest non-toxic concentration, day 4 luciferase
# T1 sequence (Q75002 493-591): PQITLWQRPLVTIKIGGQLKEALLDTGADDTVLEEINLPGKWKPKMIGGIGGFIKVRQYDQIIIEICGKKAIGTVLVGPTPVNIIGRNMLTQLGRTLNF
# T3 sequence (P24740 482-580): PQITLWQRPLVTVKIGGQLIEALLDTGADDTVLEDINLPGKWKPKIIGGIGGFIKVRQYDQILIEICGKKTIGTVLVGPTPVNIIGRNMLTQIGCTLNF
smiles,measurement,setting,value
Nc1nc(N)c(N=Nc2ccc(C(=O)O)c(O)c2)c(N)n1 [Compound 18],toxicity (more than 10% decline in viability),"TZM-bl cells; 200 μM, day 4",non-toxic
same,toxicity of combination with 25 μM RTV,TZM-bl cells; compound combined with 25 μM RTV,non-toxic
same,reduction of cell viability,PBMCs,28%
same,reduction of replication of HIV-1AD02,HIV-1AD02 [1]; [5],more than 80%
same,IC50,HIV-1AD02 [1]; multi PI-resistant variant,68.5 µM
same,Inhibition of PR subtype C,HIV-1 PR subtype C,+
same,Inhibition of PR subtype B,HIV-1 PR subtype B,+
same,Fold change compared to 25 µM RTV,"HIV-1AD02 [2]; HIV-1AD02, compound 25 µM with 25 µM RTV",0.75 fold
same,Fold change compared to 25 µM RTV,"HIV-1AD02 [2]; HIV-1AD02, compound 50 µM with 25 µM RTV",0.60 fold
same,Fold change compared to 25 µM RTV,"HIV-1AD02 [2]; HIV-1AD02, compound 100 µM with 25 µM RTV",0.53 fold
same,Fold change compared to 25 µM RTV,"HIV-1AD02 [2]; HIV-1AD02, compound alone, 25 µM",3.42 fold
same,Fold change compared to 25 µM RTV,"HIV-1AD02 [2]; HIV-1AD02, compound alone, 50 µM",3.24 fold
same,Fold change compared to 25 µM RTV,"HIV-1AD02 [2]; HIV-1AD02, compound alone, 100 uM",2.41 fold
same,Fold change compared to 25 µM RTV,HIV-1AD [3]; compound 25 µM with 25 µM RTV,0.54 fold
same,Fold change compared to 25 µM RTV,HIV-1AD [3]; compound 50 µM with 25 µM RTV,0.32 fold
same,Fold change compared to 25 µM RTV,HIV-1AD [3]; compound 100 µM with 25 µM RTV,0.40 fold
same,Fold change compared to 25 µM RTV,"HIV-1AD [3]; compound alone, 25 µM",1.12 fold
same,Fold change compared to 25 µM RTV,"HIV-1AD [3]; compound alone, 50 µM",1.13 fold
same,Fold change compared to 25 µM RTV,"HIV-1AD [3]; compound alone, 100 uM",0.87 fold
same,Inhibition of PR subtype A,HIV-1 PR subtype A,+
same,IC50,HIV-1AD [4]; PI-sensitive variant,62.7 µM
same,reduction of replication of HIV-1AD,HIV-1AD [4]; [5],more than 80%

# — PMC8694022, “Molecular Docking-Based Screening for Novel Inhibitors of the Human Immunodeficiency Virus Type 1 Protease that Effectively Reduce the Viral Replication in Human Cells” (Journal of AIDS & clinical research, 2021)
